What was measured:
MetAP-2 = MetAP-2 (Homo sapiens, UniProt P50579); assay: MetAP-2 activity measurement (coupled enzymatic reactions, substrate Met-Arg-Ser, photometric at 450 nm); assay type: biochemical; conditions: Inhibition of MetAP-2; read-out: IC50 enzyme
Procedure: The MetAP-2 activity is determined by coupling enzymatic reactions. The tripeptide Met-Arg-Ser (MAS) is employed as substrate. The methionine liberated is firstly converted into Metox and H2O2 by L-aminooxidase (AAO). In the second step, the peroxidase (POD) with the aid of the H2O2 catalyses the oxidation of the leukodye dianisidine to dianisidineox, the increase of which is detected photometrically at 450 nm.
MetAP-2 activity can be recorded continuously as kinetics. The reaction scheme illustrates that one mol of dianisidineox is formed per mol of methionene. The MetAP-2 enzyme activity can therefore be calculated directly as Δ absorption per time unit. Qualification of the MetAP-2 activity (mol of Met/time unit) is possible with the aid of the dianisidineox extinction coefficient. The change in extinction per time unit is depicted graphically and a slope calculation is carried out in the visually linear region of the reaction.

MetAP-2, sequence (P50579 whole entry, species assumed): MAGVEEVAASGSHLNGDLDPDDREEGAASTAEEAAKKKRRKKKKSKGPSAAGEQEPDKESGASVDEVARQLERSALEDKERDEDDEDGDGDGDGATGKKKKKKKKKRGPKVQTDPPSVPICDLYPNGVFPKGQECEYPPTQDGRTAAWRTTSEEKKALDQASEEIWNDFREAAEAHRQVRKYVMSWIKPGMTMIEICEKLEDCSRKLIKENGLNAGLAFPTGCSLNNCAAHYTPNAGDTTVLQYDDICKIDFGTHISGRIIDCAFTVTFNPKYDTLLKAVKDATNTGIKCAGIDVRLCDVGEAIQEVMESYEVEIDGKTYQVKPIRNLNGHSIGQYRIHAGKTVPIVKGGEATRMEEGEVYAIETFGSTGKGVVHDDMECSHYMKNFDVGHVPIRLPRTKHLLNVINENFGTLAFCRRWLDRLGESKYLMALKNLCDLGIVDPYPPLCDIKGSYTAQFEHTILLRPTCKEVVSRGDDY

Compound | IC50 (MetAP-2) | melting point
c1cnn(-c2ccnc3ncnn23)c1 [Compound A2, 7-pyrazol-1-yl-[1,2,4]triazolo[1,5-a]pyrimidine] | > 10000 nM | 191 to 193 °C
c1ccc2c(OC[C@H]3CCCN3c3ccnc4nsnc34)cccc2c1 [Compound A47] | > 10000 nM | –
FC(F)(F)c1cccc(COC[C@H]2CCCN2c2ccnc3ncnn23)c1 [Compound A48] | 1000 to 10000 nM | –
Ic1cccc(COC[C@H]2CCCN2c2ccnc3ncnn23)c1 [Compound A49] | 1000 to 10000 nM | –
c1cncc(COC[C@H]2CCCN2c2ccnc3ncnn23)c1 [Compound A56] | 1000 to 10000 nM | –
O=C(O)Cc1ccccc1OC[C@H]1CCCN1c1ccnc2ncnn12 [Compound A57] | > 10000 nM | –
c1cc(COC[C@H]2CCCN2c2ccnc3ncnn23)ccn1 [Compound A58] | > 10000 nM | –
O=C(OC[C@H]1CCCN1c1ccnc2ncnn12)c1cccc(C(F)(F)F)c1 [Compound A60] | > 10000 nM | –
O=C(OC[C@H]1CCCN1c1ccnc2ncnn12)c1ccc(Oc2ccccc2)nc1 [Compound A64] | 10 to 1000 nM | –
Clc1cc(COC[C@H]2CCCN2c2ccnc3ncnn23)cc(Cl)n1 [Compound A65] | > 10000 nM | –
O=C(OC[C@H]1CCCN1c1ccnc2ncnn12)c1cccc(CCl)c1 [Compound A74, (R)-1-[1,2,4]Triazolo[1,5-a]pyrimidin-7-yl-pyrrolidin-2-ylmethyl 3-chloromethylbenzoate] | 10 to 1000 nM | –
NCCCOC(=O)N1CCc2cccc(OC[C@H]3CCCN3c3ccnc4ncnn34)c2C1 [Compound A75] | 10 to 1000 nM | –
NCCCN1CCc2cccc(OC[C@H]3CCCN3c3ccnc4ncnn34)c2C1 [Compound A76] | 10 to 1000 nM | –
O=C1c2ccccc2C(=O)N1C[C@H]1CCCN1c1ccnc2ncnn12 [Compound A78] | 1000 to 10000 nM | –
N#Cc1cccc(C(=O)OC[C@H]2CCCN2c2ccnc3ncnn23)c1 [Compound A79, (R)-1-[1,2,4]Triazolo[1,5-a]pyrimidin-7-yl-pyrrolidin-2-ylmethyl 3-cyanobenzoate] | 10 to 1000 nM | –
Nc1nc2nccc(N3CCC[C@@H]3COc3cccc4ccccc34)n2n1 [Compound A80] | 1000 to 10000 nM | –
COC(=O)c1ccc2[nH]c(CC3CCCN3c3ccnc4ncnn34)cc2c1 (stereo not shown) [Compound A81] | 10 to 1000 nM | –
O=C(OC[C@H]1CCCN1c1ccnc2ncnn12)c1cccc(OC(F)(F)F)c1 [Compound A82, (R)-1-[1,2,4]Triazolo[1,5-a]pyrimidin-7-yl-pyrrolidin-2-ylmethyl 3-trifluoromethoxy-benzoate] | 10 to 1000 nM | –
OC[C@H]1CCCN1c1ccnc2ncnn12 [Compound A83] | 10 to 1000 nM | –
O=S(=O)(NC[C@H]1CCCN1c1ccnc2ncnn12)c1ccc(F)cc1 [Compound A84] | 1000 to 10000 nM | –

Continued, values first:

IC50 (MetAP-2) | melting point | Compound
10 to 1000 nM | 93 to 95 °C | c1cc(OC[C@H]2CCCN2c2ccnc3ncnn23)c2cccnc2c1 [Compound A5, 5-((R)-1-[1,2,4]triazolo[1,5-a]pyrimidin-7-ylpyrrolidin-2-ylmethoxy)quinoline]
10 to 1000 nM | – | N#CCCCCOC(=O)N1CCc2cccc(OC[C@H]3CCCN3c3ccnc4ncnn34)c2C1 [Compound A40]
10 to 1000 nM | – | NCCCCN1CCc2cccc(OC[C@H]3CCCN3c3ccnc4ncnn34)c2C1 [Compound A41]
10 to 1000 nM | – | NCCCCOC(=O)N1CCc2cccc(OC[C@H]3CCCN3c3ccnc4ncnn34)c2C1 [Compound A42]
10 to 1000 nM | – | COc1cccc(C(=O)OC[C@H]2CCCN2c2ccnc3ncnn23)c1 [Compound A43]
10 to 1000 nM | – | O=C(OC[C@H]1CCCN1c1ccnc2ncnn12)c1cccc(Br)c1 [Compound A44]
10 to 1000 nM | – | O=C(OC[C@H]1CCCN1c1ccnc2ncnn12)c1cccc(I)c1 [Compound A45]
10 to 1000 nM | – | O=C(OC[C@H]1CCCN1c1ccnc2ncnn12)c1cc(Cl)nc2ccccc12 [Compound A46]
10 to 1000 nM | – | CN(C)c1cccc(C(=O)OC[C@H]2CCCN2c2ccnc3ncnn23)c1 [Compound A50]
10 to 1000 nM | – | COc1cccc(COC[C@H]2CCCN2c2ccnc3ncnn23)c1 [Compound A51]
10 to 1000 nM | – | O=C(OC[C@H]1CCCN1c1ccnc2ncnn12)c1cccc(F)c1 [Compound A52]
10 to 1000 nM | – | NC(=O)CCCC(=O)N1CCc2cccc(OC[C@H]3CCCN3c3ccnc4ncnn34)c2C1 [Compound A53]
10 to 1000 nM | – | Fc1cccc(COC[C@H]2CCCN2c2ccnc3ncnn23)c1 [Compound A55]
10 to 1000 nM | – | COC(=O)c1ccc2[nH]c(COC[C@H]3CCCN3c3ccnc4ncnn34)cc2c1 [Compound A59]
10 to 1000 nM | – | O=C(OC[C@H]1CCCN1c1ccnc2ncnn12)c1ccc(Cl)nc1 [Compound A61]
10 to 1000 nM | – | O=C(OC[C@H]1CCCN1c1ccnc2ncnn12)c1cccnc1Oc1ccccc1 [Compound A62]
10 to 1000 nM | – | Brc1cccc(COC[C@H]2CCCN2c2ccnc3ncnn23)c1 [Compound A66, 7-[(R)-2-(3-Bromobenzyloxymethyl)pyrrolidin-1-yl]-[1,2,4]triazolo[1,5-a]pyrimidine]
10 to 1000 nM | – | FC(F)(F)Oc1cccc(COC[C@H]2CCCN2c2ccnc3ncnn23)c1 [Compound A67, 7-[(R)-2-(3-Trifluoromethoxybenzyloxymethyl)-pyrrolidin-1-yl]-[1,2,4]triazolo[1,5-a]pyrimidine]
10 to 1000 nM | – | O=C(OC[C@H]1CCCN1c1ccnc2ncnn12)c1ccccc1I [Compound A68, (R)-1-[1,2,4]Triazolo[1,5-a]pyrimidin-7-yl-pyrrolidin-2-ylmethyl 2-iodobenzoate]
10 to 1000 nM | – | O=C(OC[C@H]1CCCN1c1ccnc2ncnn12)c1ccccn1 [Compound A69, (R)-1-[1,2,4]Triazolo[1,5-a]pyrimidin-7-yl-pyrrolidin-2-ylmethyl pyridine-2-carboxylate]
10 to 1000 nM | – | O=C(OC[C@H]1CCCN1c1ccnc2ncnn12)c1cccnc1 [Compound A70]
10 to 1000 nM | – | O=C(OC[C@H]1CCCN1c1ccnc2ncnn12)c1ccccc1 [Compound A71, (R)-1-[1,2,4]Triazolo[1,5-a]pyrimidin-7-yl-pyrrolidin-2-ylmethyl benzoate]
10 to 1000 nM | – | CCOc1cccc(C(=O)OC[C@H]2CCCN2c2ccnc3ncnn23)c1 [Compound A72, (R)-1-[1,2,4]Triazolo[1,5-a]pyrimidin-7-yl-pyrrolidin-2-ylmethyl 3-ethoxybenzoate]
10 to 1000 nM | – | O=C(OC[C@H]1CCCN1c1ccnc2ncnn12)c1cc(Cl)ccc1F [Compound A73, (R)-1-[1,2,4]Triazolo[1,5-a]pyrimidin-7-yl-pyrrolidin-2-ylmethyl 5-chloro-2-fluorobenzoate]

— patent US8546406B2, “Heterocyclic compounds as metap-2 inhibitors” (Merck Patent GmbH, priority 2009, dated 2013)
